Key:
[1] = test system: tonsil-derived human MSCs (hMSC-T, passage 6); experiment: Antioxidant activity (ROS assay) upon NAC pretreatment followed by PYBR treatment; format: cell-based; conditions: NAC pretreatment 10 mM and 20 mM for 24 hours, then PYBR 5, 10, 20 μg/mL for 24 hours; FIG. 5
Experimental: In order to evaluate antioxidant activity upon NAC treatment, tonsil-derived human MSCs (hMSC-T, passage 6) were seeded in a culture medium at a density of 1×10^4 cells/well. On the following day, NAC was treated at concentrations of 10 mM and 20 mM for 24 hours. Thereafter, the cells were washed with PBS and the medium was replaced, followed by treatment with PYBR at concentrations of 5, 10, and 20 μg/mL. After 24 hours, the cells were washed three times with PBS and incubated in 100 μL of ROS working solution at 37° C. for 30 minutes in the dark. Absorbance was then measured at 488/525 nm (FIG. 4). A group not treated with NAC was used as a positive control.

[2] = test system: tonsil-derived human MSCs (hMSC-T, passage 6); experiment: Cell viability (WST, absorbance at 450 nm) upon NAC pretreatment followed by PYBR treatment; format: cell-based; conditions: NAC pretreatment 10 mM and 20 mM for 24 hours, then PYBR 5, 10, 20 μg/mL for 24 hours; FIG. 3
Experimental: In order to evaluate cell viability upon NAC treatment, tonsil-derived human MSCs (hMSC-T, passage 6) were seeded in a culture medium at a density of 1×10^3 cells/well. On the following day, NAC was treated at concentrations of 10 mM and 20 mM for 24 hours. Thereafter, the cells were washed with PBS and the medium was replaced, followed by treatment with PYBR at concentrations of 5, 10, and 20 μg/mL. After 24 hours, the cells were washed three times with PBS and transferred to fresh medium (100 μL) containing 10 μL of WST solution, and incubated at 37° C. for 2 hours in the dark. Absorbance at 450 nm was then measured to evaluate cell viability (FIG. 2). A group not treated with NAC was used as a positive control.

[3] = test system: tonsil-derived human MSCs; experiment: Cell viability after NAC pretreatment for 24 hours (determination of NAC pretreatment concentration); conditions: NAC 10 mM, FIG. 1
Experimental: In order to determine the concentration of NAC for pretreatment of tonsil-derived human MSCs, the tonsil-derived human MSCs were pretreated with NAC prepared in Example 1 at concentrations of 2, 4, 6, 8, 10, 15, and 100 mM for 24 hours, and then cell viability was evaluated.

SMILES: CC(=O)NC(CS)C(=O)O (stereo not drawn) [NAC, 2-acetamido-3-sulfanylpropanoic acid]
- ROS levels after PYBR treatment [1]: significantly reduced ROS levels
- cell viability after PYBR treatment [2]: significantly restored cell viability
- cytotoxicity (cell viability) [3]: no cytotoxicity was observed

Reference: patent US20260167935A1, “METHOD FOR CULTURING TONSIL-DERIVED MESENCHYMAL STEM CELLS USING N-ACETYLCYSTEINE (NAC)” (priority 2023, published 2026)
